According to patent US20260317344A1, “EGFR INHIBITORS FOR TREATING DISEASE” (BLOSSOMHILL THERAPEUTICS, INC., priority 2023, published 2026):
Read-outs that look alike come from different tables or passages of the source.

Experiments:
[1] = molecular target: T1, pEGFR, NCI-H1975 cells (L858R/T790M EGFR) (Homo sapiens, UniProt P00533, L858R/T790M); test: Cellular EGFR phosphorylation assay (LANCE Ultra TR-FRET) in NCI-H1975 cells; assay type: cell-based; details: 4 hours at 37° C., read-out: H1975 pEGFR IC50
T1 construct: pEGFR (Tyr1068) TR-FRET
T1 sequence (P00533 25-1210 T790M/L858R): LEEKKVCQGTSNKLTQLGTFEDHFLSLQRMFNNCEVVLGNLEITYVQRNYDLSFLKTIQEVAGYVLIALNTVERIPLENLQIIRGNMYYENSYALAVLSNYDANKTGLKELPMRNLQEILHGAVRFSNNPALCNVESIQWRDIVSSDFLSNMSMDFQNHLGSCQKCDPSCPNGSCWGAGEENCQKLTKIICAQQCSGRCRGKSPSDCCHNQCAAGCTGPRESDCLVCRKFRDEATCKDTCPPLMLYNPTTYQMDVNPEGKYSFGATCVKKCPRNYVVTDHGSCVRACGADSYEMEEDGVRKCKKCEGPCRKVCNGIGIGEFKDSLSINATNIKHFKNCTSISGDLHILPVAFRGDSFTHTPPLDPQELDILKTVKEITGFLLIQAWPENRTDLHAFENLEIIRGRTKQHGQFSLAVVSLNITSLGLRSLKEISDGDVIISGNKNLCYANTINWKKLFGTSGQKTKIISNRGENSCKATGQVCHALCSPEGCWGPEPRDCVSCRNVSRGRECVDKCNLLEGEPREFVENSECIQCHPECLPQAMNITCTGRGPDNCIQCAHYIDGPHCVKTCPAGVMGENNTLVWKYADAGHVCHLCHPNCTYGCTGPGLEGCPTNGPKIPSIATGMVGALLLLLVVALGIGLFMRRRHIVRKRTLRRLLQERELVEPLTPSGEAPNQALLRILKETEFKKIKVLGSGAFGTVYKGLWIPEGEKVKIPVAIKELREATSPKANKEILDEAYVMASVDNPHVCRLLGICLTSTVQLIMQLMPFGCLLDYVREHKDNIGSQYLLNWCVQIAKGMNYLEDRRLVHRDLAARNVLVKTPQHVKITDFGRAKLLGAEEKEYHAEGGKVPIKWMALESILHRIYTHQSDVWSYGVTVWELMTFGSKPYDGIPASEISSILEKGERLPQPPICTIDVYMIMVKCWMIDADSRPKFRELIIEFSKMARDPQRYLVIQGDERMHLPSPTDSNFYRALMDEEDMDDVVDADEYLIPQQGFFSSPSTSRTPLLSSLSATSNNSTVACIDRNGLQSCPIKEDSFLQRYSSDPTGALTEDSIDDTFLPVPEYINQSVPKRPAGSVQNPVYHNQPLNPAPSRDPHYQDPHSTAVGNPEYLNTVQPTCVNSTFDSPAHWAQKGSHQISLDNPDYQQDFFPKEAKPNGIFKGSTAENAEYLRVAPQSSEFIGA
Description: (§1) Cellular EGFR Phosphorylation Assays
(§2) EGFR phosphorylation assays were conducted in NSCLC cells with EGFR activation mutations. PC-9 cells (purchased from Aldrich-Sigma) carry a Glu746-Ala750 deletion (d746-750) mutation in exon 19 of the EGFR gene and NCI-H1975 cells (purchased from ATCC) carry both L858R activation mutation and T790M gatekeeper mutation in the EGFR gene. A431 cells (purchased from ATCC) with amplification of wildtype EGFR, derived from epidermoid carcinoma, were used to measure the activity against wildtype EGFR. All cells were seeded in 96-well plates. For PC-9 and NCI-H1975 cells, 50 thousand cells were seeded per well. For A431 cells, 30 thousand cells were seeded per well. The next day, cells were exposed to compound for 4 hours at 37° C. and 5% CO2. Compounds were diluted in DMSO and added to cells in a 9-dose, 3-fold dilution, titration curve using TECAN d300e liquid dispenser. For A431 cells, 40 ng/mL of EGF was added to the media for the final 10 minutes of incubation. EGFR phosphorylation was measured using phospho-EGFR (Try1068) LANCE Ultra TR-FRET Detection Kit (TRF4015M) from PerkinElmer according to manufacturer's instructions. In brief, cells were lysed with 40 μL of lysis buffer plus 1× Halt protease and phosphatase inhibitor cocktail (Thermo 78441) and by incubation at room temperature for 1 h on a microplate shaker (350 rpm). 15 μ L of cell lysate was transferred to 384-well white plate and 5 μL of Europium- and ULight-labeled antibodies diluted in 1× detection buffer was added to each well. After 4-6 hours of incubation at room temperature, plates were then read on a TECAN Sparks multimode microplate reader. Data was analyzed using GraphPad Prism 9 (GraphPad Software, San Diego, CA) to obtain IC50 values.

[2] = system: HCC827 cells; test: 5-Day CellTiter Glo (CTG) cell proliferation assay, HCC827; assay type: cell-based; details: Homo sapiens, read-out: HCC827 IC50
Description: (§3) 5-Day CellTiter Glo (CTG) Cell Proliferation Assays (PC9, H1975, H827)
(§4) Cell proliferation assays were carried out in NSCLC cells with EGFR activation mutations. Both PC-9 cells and HCC827 cells (purchased from DSMZ) carry a Glu746-Ala750 deletion (d746-750) mutation in exon 19 of the EGFR gene and NCI-H1975 cells carry both L858R activation mutation and T790M gatekeeper mutation in the EGFR gene. One thousand PC-9, NCI-H1975 or HCC827 cells/100 μL per well were seeded in 96-well black plate with transparent bottom and then treated with indicated compounds in a 9-dose dilution series dispensed using TECAN d300e liquid dispenser. Cells were incubated with compounds for 120 hours at 37° C. and 5% CO2. Cell proliferation was measured using CellTiter-Glo 2.0 luciferase-based ATP detection assay (Promega, Madison, WI) at […] per well following the manufacturer's protocol. Plates were then read on a TECAN Sparks multimode microplate reader. Data was analyzed using GraphPad Prism 9 (GraphPad Software, San Diego, CA) to obtain IC50 values.

[3] = molecular target: T2, pEGFR, A431 cells (wildtype EGFR) (Homo sapiens, UniProt P00533); test: Cellular EGFR phosphorylation assay (LANCE Ultra TR-FRET) in A431 cells; assay type: cell-based; details: 4 hours at 37° C., 40 ng/mL EGF for the final 10 minutes, read-out: A431 pEGFR IC50
T2 construct: pEGFR (Tyr1068) TR-FRET
T2 sequence (P00533 25-1210): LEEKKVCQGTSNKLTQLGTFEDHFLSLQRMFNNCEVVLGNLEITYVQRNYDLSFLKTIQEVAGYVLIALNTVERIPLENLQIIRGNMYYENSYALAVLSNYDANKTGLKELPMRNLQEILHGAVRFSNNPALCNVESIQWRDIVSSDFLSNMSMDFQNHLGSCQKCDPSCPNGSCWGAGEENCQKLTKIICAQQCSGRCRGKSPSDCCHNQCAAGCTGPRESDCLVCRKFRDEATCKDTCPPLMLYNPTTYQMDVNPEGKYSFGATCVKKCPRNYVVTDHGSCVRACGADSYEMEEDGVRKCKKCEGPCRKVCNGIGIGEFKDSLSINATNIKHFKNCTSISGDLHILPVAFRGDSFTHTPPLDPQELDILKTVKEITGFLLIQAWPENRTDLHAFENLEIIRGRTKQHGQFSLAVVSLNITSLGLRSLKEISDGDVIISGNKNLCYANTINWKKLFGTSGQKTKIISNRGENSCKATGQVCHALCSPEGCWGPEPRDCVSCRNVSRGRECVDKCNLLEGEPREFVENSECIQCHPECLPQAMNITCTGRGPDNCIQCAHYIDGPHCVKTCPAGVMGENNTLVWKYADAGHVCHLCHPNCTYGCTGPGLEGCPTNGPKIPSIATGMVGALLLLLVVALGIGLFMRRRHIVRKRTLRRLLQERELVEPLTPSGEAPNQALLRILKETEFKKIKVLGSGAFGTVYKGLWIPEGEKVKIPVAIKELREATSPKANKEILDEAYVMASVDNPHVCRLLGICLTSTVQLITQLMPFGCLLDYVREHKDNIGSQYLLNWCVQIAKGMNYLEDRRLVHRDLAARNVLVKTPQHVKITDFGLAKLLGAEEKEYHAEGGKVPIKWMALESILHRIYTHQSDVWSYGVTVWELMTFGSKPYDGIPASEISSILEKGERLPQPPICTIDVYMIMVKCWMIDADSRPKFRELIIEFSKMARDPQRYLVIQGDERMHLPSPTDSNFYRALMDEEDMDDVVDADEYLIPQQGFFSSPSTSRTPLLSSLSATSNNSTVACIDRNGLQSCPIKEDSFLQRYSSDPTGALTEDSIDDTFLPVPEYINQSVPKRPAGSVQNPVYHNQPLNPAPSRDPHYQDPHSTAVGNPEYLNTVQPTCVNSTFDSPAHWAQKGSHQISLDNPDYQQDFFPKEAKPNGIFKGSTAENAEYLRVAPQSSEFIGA
Description: as §1, §2

[4] = molecular target: T3, pEGFR, PC-9 cells (d746-750 EGFR) (Homo sapiens, UniProt P00533, DEL746-750); test: Cellular EGFR phosphorylation assay (LANCE Ultra TR-FRET) in PC-9 cells; assay type: cell-based; details: 4 hours at 37° C., read-out: PC-9 pEGFR IC50
T3 construct: pEGFR (Tyr1068) TR-FRET
Description: as §1, §2

[5] = system: PC-9 cells; test: 5-Day CellTiter Glo (CTG) cell proliferation assay, PC-9; assay type: cell-based; details: Homo sapiens, read-out: PC-9 IC50
Description: as §3, §4

[6] = system: NCI-H1975 cells; test: 5-Day CellTiter Glo (CTG) cell proliferation assay, NCI-H1975; assay type: cell-based; details: Homo sapiens, read-out: H1975 IC50
Description: as §3, §4

[7] = molecular target: EGFR (D746-750/C797S) (Homo sapiens, UniProt P00533, C797S/DEL746-750); test: HotSpot radiometric kinase assay, inhibition of EGFR 746-750/C797S mutant; assay type: biochemical; details: 33P ATP, room temperature, 120 m
EGFR (D746-750/C797S), sequence (P00533 with tags, fused parts or gaps DEL746-750/C797S): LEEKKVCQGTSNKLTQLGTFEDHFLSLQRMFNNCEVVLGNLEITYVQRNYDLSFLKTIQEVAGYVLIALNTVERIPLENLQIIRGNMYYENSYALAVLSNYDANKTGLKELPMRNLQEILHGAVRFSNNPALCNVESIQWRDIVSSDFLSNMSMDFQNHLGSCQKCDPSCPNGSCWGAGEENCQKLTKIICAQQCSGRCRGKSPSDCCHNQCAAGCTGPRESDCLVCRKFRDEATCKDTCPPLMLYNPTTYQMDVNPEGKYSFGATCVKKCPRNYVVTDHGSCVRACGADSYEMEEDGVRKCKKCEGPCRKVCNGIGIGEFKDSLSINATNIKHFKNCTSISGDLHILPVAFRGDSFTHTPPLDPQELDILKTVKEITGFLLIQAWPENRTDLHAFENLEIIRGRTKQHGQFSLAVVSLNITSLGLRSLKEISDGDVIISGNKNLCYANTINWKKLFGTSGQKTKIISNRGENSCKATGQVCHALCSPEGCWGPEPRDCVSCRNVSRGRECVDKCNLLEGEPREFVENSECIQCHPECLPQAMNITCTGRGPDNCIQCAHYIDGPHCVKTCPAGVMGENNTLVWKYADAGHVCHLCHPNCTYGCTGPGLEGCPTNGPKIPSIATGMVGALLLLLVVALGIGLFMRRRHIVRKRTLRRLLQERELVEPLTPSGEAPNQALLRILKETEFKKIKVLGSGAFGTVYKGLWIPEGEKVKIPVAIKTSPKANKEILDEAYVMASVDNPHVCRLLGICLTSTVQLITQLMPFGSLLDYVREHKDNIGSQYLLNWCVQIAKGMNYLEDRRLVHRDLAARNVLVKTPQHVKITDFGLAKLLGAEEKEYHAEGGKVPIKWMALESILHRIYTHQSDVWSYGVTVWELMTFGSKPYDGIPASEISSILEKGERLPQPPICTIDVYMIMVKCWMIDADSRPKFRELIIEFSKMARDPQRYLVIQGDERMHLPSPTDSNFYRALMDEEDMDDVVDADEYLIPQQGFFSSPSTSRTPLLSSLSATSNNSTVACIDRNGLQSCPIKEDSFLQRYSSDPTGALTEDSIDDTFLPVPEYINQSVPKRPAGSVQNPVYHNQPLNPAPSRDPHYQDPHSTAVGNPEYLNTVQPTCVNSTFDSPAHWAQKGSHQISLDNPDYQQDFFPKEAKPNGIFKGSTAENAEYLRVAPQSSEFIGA
Description: (§5) Biochemical Assays for inhibition of wild-type and mutant EGFRs
(§6) Briefly, specific kinase/substrate pairs along with required cofactors were prepared in reaction buffer; 20 mM HEPES pH 7.5, 10 mM […], 1 mM EGTA, 0.02% Brij35, 0.02 mg/ml BSA, 0.1 mM Na3VO4, 2 mM DTT, 1% DMSO. Compounds were delivered into the reaction, followed ~20 minutes later by addition of a mixture of ATP (Sigma, St. Louis MO) and ^33P ATP (Perkin Elmer, Waltham MA) to a final concentration of […]. Reactions were carried out at room temperature for 120 m, followed by spotting of the reactions onto P81 ion exchange filter paper (Whatman Inc., Piscataway, NJ). Unbound phosphate was removed by extensive washing of filters in 0.75% phosphoric acid. […] IC50 values and curve fits were obtained using Prism (GraphPad Software).

[8] = molecular target: EGFR (L858R/T790M/C797S) (Homo sapiens, UniProt P00533, C797S/L858R/T790M); test: HotSpot radiometric kinase assay, inhibition of EGFR L858R/T790M/C797S mutant; assay type: biochemical; details: 33P ATP, room temperature, 120 m
Description: as §5, §6

[9] = molecular target: EGFR (D746-750) (Homo sapiens, UniProt P00533, DEL746-750); test: HotSpot radiometric kinase assay, inhibition of EGFR 746-750 mutant; assay type: biochemical; details: 33P ATP, room temperature, 120 m
Description: as §5, §6

[10] = molecular target: EGFR (D770_N771insNPG) (Homo sapiens, UniProt P00533, INS770NPG); test: HotSpot radiometric kinase assay, inhibition of EGFR (D770_N771insNPG) mutant; assay type: biochemical; details: 33P ATP, room temperature, 120 m
EGFR (D770_N771insNPG), sequence (P00533 with tags, fused parts or gaps INS770NPG limits assumed): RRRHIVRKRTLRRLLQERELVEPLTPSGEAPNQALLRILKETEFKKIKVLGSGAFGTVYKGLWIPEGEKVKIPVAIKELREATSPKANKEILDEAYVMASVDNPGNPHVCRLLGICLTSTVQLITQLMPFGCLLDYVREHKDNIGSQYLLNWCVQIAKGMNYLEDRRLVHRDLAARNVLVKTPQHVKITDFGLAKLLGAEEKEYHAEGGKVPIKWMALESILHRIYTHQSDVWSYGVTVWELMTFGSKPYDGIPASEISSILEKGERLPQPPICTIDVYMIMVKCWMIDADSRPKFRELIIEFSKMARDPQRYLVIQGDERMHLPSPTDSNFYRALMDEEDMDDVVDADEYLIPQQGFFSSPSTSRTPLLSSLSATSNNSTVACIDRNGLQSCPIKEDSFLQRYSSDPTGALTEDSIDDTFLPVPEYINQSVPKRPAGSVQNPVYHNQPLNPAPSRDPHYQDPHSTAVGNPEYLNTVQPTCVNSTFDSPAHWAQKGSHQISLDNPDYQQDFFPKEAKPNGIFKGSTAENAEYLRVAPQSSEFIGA
Description: as §5, §6

[11] = system: BaF3 cells with engineered EGFR L858R/T790M/C797S; test: 3-Day CellTiter Glo (CTG) cell proliferation assay, BaF3 EGFR L858R/T790M/C797S; assay type: cell-based; details: Mus musculus, 3-day CTG proliferation, 72 hours
Description: 3-DAY CellTiter Glo (CTG) Cell Proliferation Assays (BaF3 Cell Lines)
Cell proliferation assays were carried out in BaF3 cells engineered with EGFR mutations. BaF3 cells with engineered EGFR L858R/T790M/C797S, EGFR L858R/C797S, or EGFR d746-750/T790M transgene, one thousand cells/50 μL per well were seeded in white 384-well plate, followed by treatment with indicated compounds in a 9-dose dilution series using TECAN d300e liquid dispenser. Cells were incubated with compounds for 72 hours at 37° C. and 5% CO2. Cell proliferation was measured using CellTiter-Gbo 2.0 luciferase-based ATP detection assay (Promega, Madison, WI) at 18 μL per well following the manufacturer's protocol. Plates were then read on a TECAN Sparks multimode microplate reader. Data was analyzed using GraphPad Prism 9 (GraphiPad Software, San Diego, CA) to obtain IC50 values.

[12] = HCC827 cells (d746-750 EGFR), 5-day CTG proliferation, 120 hours
[13] = PC-9 cells (d746-750 EGFR), 5-day CTG proliferation, 120 hours
[14] = NCI-H1975 cells (L858R/T790M EGFR), 5-day CTG proliferation, 120 hours

| Compound | IC50 [1] | IC50 [2, 12] | IC50 [3] | IC50 [4] | IC50 [5, 13] | IC50 [6, 14] | IC50 [7] | IC50 [8] | IC50 [9] | IC50 [10] | other results |
| --- | --- | --- | --- | --- | --- | --- | --- | --- | --- | --- | --- |
| Cc1nn(C)c2c1-c1cc3c(n[nH]c3c(C)n1)/C=C/c1c(OCC#N)nn([C@@H](C)CO)c1CN(CC(F)F)C[C@H](C)O2 [Ex. 151, {[(10S,17E)-12-(2,2-difluoroethyl)-14-[(2S)-1-hydroxypropan-2-yl]-6,8,10,20-tetramethyl-2,10,11,12,13,14-hexahydro-8H-5,3-(azenometheno)tripyrazolo[3,4-f:3′,4′-j:4″,3″-n][1,4]oxazacyclopentadecin-16-yl]oxy}acetonitrile] | 3.24 nM | 0.42 nM | 26.6 nM | 2.04 nM | 1.55 nM | 4.89 nM |  |  |  |  |  |
| CCc1nn(CCO)c2c1/C=C/c1n[nH]c3cnc(cc13)-c1c(C)nn(C)c1O[C@H](C)CN(CC)C2 [Ex. 55, 2-[(10R,17E)-12,16-diethyl-6,8,10-trimethyl-2,8,10,11,12,13-hexahydro-14H-5,3-(azenometheno)tripyrazolo[3,4-f:3′,4′-j:4″,3″-n][1,4]oxazacyclopentadecin-14-yl]ethan-1-ol] |  |  |  |  |  |  | 0.72 nM | 0.53 nM | 0.25 nM | 1.38 nM |  |
| [2H]C([2H])([2H])C([2H])([2H])Oc1nn([C@@H](C)CO)c2c1/C=C/c1n[nH]c3cnc(cc13)-c1c(C)nn(C)c1O[C@@H](C)CN(C)C2 [Ex. 87, (2S)-2-[(10S,17E)-16-[(^2H5)ethyloxy]-6,8,10,12-tetramethyl-2,8,10,11,12,13-hexahydro-14H-5,3-(azenometheno)tripyrazolo[3,4-f:3′,4′-j:4″,3″-n][1,4]oxazacyclopentadecin-14-yl]propan-1-ol] | 1.82 nM |  | 5.88 nM | 0.97 nM |  |  |  |  |  |  | IC50 ([2]; HCC827, 120 h): 0.23 nM; IC50 ([5]; PC-9, 120 h): 0.36 nM; IC50 ([6]; NCI-H1975, 120 h): 0.57 nM |
| Cc1nn(C)c2c1-c1cc3c(n[nH]c3c(C)n1)/C=C/c1c(OCC#N)nn([C@@H](C)CO)c1CN(C)C[C@H](C)O2 [Ex. 52] |  |  |  |  |  |  | 0.71 nM | 0.46 nM | 0.21 nM | 0.25 nM |  |
| CCOc1nn(CCO)c2c1/C=C/c1n[nH]c3c(C)nc(cc13)-c1cnn(C)c1O[C@H](C)CN(CC)C2 [Ex. 37, 2-[(10R,17E)-16-ethoxy-12-ethyl-8,10,20-trimethyl-2,8,10,11,12,13-hexahydro-14H-5,3-(azenometheno)tripyrazolo[3,4-f:3′,4′-j:4″,3″-n][1,4]oxazacyclopentadecin-14-yl]ethan-1-ol] |  |  |  |  |  |  | 0.79 nM | 0.71 nM | 0.31 nM | 1.62 nM |  |
| CCOc1nn([C@@H](C)CO)c2c1/C=C/c1n[nH]c3c(C)nc(cc13)-c1c(COC)nn(C)c1O[C@@H](C)CN(CC)C2 [Ex. 147, (2S)-2-[(10S,17E)-16-ethoxy-12-ethyl-6-(methoxymethyl)-8,10,20-trimethyl-2,8,10,11,12,13-hexahydro-14H-5,3-(azenometheno)tripyrazolo[3,4-f:3′,4′-j:4″,3″-n][1,4]oxazacyclopentadecin-14-yl]propan-1-ol] |  | 0.34 nM | 11.3 nM |  | 0.59 nM | 20.4 nM |  |  |  |  |  |
| CCN1CCOc2c(c(C)nn2C)-c2cc3c(n[nH]c3cn2)/C=C/c2c(OCC#N)nn([C@@H](C)CO)c2C1 [Ex. 66, {[(17E)-12-ethyl-4-[(2S)-1-hydroxypropan-2-yl]-6,8-dimethyl-2,10,11,12,13,14-hexahydro-8H-5,3-(azenometheno)tripyrazolo[3,4-f:3′,4′-j:4″,3″-n][1,4]oxazacyclopentadecin-16-yl]oxy}acetonitrile] |  |  |  |  |  |  | 1.04 nM | 0.54 nM | 0.36 nM | 0.42 nM |  |
| Cc1nn(C)c2c1-c1cc3c(n[nH]c3cn1)/C=C/c1c(OCC#N)nn(CCO)c1CN1CCC[C@@H]1CO2 [Ex. 43, {[(8aR,19E)-3-(2-hydroxyethyl)-11,13-dimethyl-3,4,7,8,8a,9,11,17-octahydro-6H-14,16-(azenometheno)tripyrazolo[3,4-f:3′,4′-j:4″,3″-n]pyrrolo[2,1-c][1,4]oxazacyclopentadecin-1-yl]oxy}acetonitrile] |  |  |  |  |  |  | 0.23 nM | 0.16 nM | 0.09 nM | 0.18 nM |  |
| CCN1Cc2c(c(OCC#N)nn2[C@@H](C)CO)/C=C/c2n[nH]c3c(C)nc(cc23)-c2c(C)nn(C)c2O[C@@H](C)C1 [Ex. 148, {[(10S,17E)-12-ethyl-14-[(2S)-1-hydroxypropan-2-yl]-6,8,10,20-tetramethyl-2,10,11,12,13,14-hexahydro-8H-5,3-(azenometheno)tripyrazolo[3,4-f:3′,4′-j:4″,3″-n][1,4]oxazacyclopentadecin-16-yl]oxy}acetonitrile] | 2.9 nM | 0.29 nM | 40.5 nM | 1.94 nM | 0.76 nM | 1.76 nM |  |  |  |  |  |
| Cc1c2c(nn1C)CN(C)CCOc1c(cnn1C)-c1cc3c(n[nH]c3cn1)/C=C/2 [Ex. 73, (17E)-8,12,15,16-tetramethyl-2,10,11,12,13,15-hexahydro-8H-5,3-(azenometheno)tripyrazolo[3,4-f:3′,4′-j:4″,3″-n][1,4]oxazacyclopentadecine] |  | 0.24 nM | 564 nM | 72.6 nM | 23.7 nM | 5.53 nM |  |  |  |  | IC50 [11]: 35.8 nM |
